According to ChEMBL document CHEMBL1201862, “PubChem BioAssay data set” (2004):
Calls of active or inactive are those of the source.

Experiments:
A549 = assay: A549 cell toxicity, dose response, cytotoxicity control, plate reader, cherry-pick samples (AID 687028); format: functional, cell-based; settings: Homo sapiens
[1] = microbe, parasite or virus in culture; format: functional; settings: Mycobacterium tuberculosis
[2] = biological target: Fructose-bisphosphate aldolase (Mycobacterium tuberculosis, UniProt P9WQA3); assay: Fluorescence-based biochemical high throughput dose response assay for inhibitors of the fructose-bisphosphate aldolase (FBA) of M. tuberculosis.; format: functional
Sequence of Fructose-bisphosphate aldolase (P9WQA3 whole entry): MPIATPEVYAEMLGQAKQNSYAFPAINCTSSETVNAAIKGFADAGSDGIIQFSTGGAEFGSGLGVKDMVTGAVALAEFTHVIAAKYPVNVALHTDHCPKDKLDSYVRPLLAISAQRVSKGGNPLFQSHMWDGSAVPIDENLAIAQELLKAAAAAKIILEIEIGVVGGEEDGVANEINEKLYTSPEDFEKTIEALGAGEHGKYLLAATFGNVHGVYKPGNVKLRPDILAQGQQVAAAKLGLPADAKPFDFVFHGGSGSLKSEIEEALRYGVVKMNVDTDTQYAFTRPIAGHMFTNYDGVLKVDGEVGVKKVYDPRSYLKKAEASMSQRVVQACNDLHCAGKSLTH

[3] = intracellular Trypanosoma cruzi inhibitors in host cells – cell-based, plate reader, cherry-pick samples, set 3, dose response (AID 651818); format: functional;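 also: compounds incubated with infected cells for about four days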
[4] = biological target: Matrix metalloproteinase-14 (Homo sapiens, UniProt P50281); assay: Dose Response confirmation of uHTS hits for a small molecule inhibitors of MT1-MMP activation in a fluorescence assay set 1.; format: functional
[5] = HT1080 parental cell cytotoxicity, dose response, cytotoxicity control for MT1-MMP activation inhibitor project, ATPLite luminescence, set 1 (AID 652252); format: functional
[6] = Counterscreen for inhibitors of Trypanosoma brucei methionyl tRNA synthetase (MetRS): Luminescence-based cell-based high throughput dose response assay to identify compounds that are cytotoxic to Jurkat human T lymphocyte cells.; format: functional
[7] = biological target: T1, Methionyl-tRNA synthetase, putative (Trypanosoma brucei brucei, UniProt Q38C91); format: functional, Trypanosoma brucei brucei strain 927/4 GUTat10.1
T1 sequence (Q38C91 whole entry): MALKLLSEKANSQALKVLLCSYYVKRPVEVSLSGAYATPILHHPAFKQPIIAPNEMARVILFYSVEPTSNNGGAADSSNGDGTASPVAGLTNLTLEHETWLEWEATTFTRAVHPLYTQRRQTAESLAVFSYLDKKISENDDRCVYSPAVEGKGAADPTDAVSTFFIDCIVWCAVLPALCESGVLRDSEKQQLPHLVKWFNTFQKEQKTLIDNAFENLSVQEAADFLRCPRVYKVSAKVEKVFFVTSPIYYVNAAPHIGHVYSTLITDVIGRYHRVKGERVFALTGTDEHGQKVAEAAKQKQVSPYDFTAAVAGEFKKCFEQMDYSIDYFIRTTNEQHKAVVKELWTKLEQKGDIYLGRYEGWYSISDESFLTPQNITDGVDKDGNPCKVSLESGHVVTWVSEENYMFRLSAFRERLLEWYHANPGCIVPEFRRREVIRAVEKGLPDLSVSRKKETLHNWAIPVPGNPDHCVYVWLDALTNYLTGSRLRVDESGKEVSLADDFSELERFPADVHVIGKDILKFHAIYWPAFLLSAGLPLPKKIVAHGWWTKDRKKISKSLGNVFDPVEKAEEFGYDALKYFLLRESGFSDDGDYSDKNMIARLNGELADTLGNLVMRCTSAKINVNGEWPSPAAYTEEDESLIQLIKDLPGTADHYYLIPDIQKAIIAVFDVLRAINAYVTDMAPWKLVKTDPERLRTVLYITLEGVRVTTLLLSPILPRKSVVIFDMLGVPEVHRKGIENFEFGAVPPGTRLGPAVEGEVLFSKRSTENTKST

[8] = biological target: T1, Methionyl-tRNA synthetase, putative; format: functional, Trypanosoma brucei brucei strain 927/4 GUTat10.1; remark: listed apart in the source
[9] = biological target: Adenosylmethionine-8-amino-7-oxononanoate aminotransferase (Mycobacterium tuberculosis, UniProt P9WQ81); assay: Mycobacterium tuberculosis BioA enzyme inhibitor Measured in Biochemical System Using Plate Reader - 2163-02_Inhibitor_Dose_CherryPick_Activity.; format: functional, Mycobacterium tuberculosis UT205
Sequence of Adenosylmethionine-8-amino-7-oxononanoate aminotransferase (P9WQ81 whole entry): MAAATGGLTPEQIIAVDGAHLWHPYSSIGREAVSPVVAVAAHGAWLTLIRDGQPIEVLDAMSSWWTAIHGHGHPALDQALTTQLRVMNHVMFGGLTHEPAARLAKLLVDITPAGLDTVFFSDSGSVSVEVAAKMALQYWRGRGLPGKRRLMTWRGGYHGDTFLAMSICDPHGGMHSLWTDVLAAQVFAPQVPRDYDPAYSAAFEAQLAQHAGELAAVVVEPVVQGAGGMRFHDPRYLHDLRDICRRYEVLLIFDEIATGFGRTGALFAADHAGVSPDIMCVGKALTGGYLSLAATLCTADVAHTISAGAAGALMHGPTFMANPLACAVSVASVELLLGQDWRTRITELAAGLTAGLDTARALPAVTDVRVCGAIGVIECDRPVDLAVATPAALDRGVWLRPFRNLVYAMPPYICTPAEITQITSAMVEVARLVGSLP

[10] = HEK293 cell cytotoxicity, dose response, cytotoxicity control, plate reader, cherry-picked samples (AID 743446); format: functional, cell-based
[11] = tested on: Streptococcus sp. 'group A'; assay: growth inhibition of control SK(-) GAS strain, dose response, counter-screen for streptokinase expression inhibitor project, luminescence, kanamycin, BacTiterGlo, confirmation (AID 1900); format: functional, organism-based
[12] = HepG2 cell cytotoxicity, dose response, cytotoxicity control, plate reader, cherry-pick, antagonist series (AID 743416); format: functional, cell-based
[13] = LGR2 antagonists, dose response, cell-based, HEK293, CRE-luciferase reporter, cherry pick, set 2 (AID 743343); format: functional;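 also: transfected cells were stimulated with diluted bursicon conditioned medium after compound addition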
[14] = A549 cell cytotoxicity, dose response, cytotoxicity control, plate reader, cherry-pick, antagonist series (AID 743412); format: functional, cell-based
[15] = MC4R antagonists, dose response, counter-screen for LGR2 antagonist project, cell-based, plate reader, cherry pick (AID 743444); format: functional;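 also: transfected HEK 293 cells stimulated with alpha-MSH peptide; potency of inhibitors of the alpha-MSH evoked signal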
cells = format: functional, cell-based
HEK293 = assay: inhibitors of LMP1-driven NF-kB reporter, dose response, cell-based, HEK293, luciferase, cherry-pick (AID 588343); format: functional; settings: Homo sapiens
[16] = biological target: T2, Nuclear receptor subfamily 0 group B member 1 (Homo sapiens, UniProt P51843); format: functional, cell-based;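 also: HEK293T cells transfected with SF-1 and DAX-1 plus StAR promoter luciferase reporter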
T2 sequence (P51843 whole entry): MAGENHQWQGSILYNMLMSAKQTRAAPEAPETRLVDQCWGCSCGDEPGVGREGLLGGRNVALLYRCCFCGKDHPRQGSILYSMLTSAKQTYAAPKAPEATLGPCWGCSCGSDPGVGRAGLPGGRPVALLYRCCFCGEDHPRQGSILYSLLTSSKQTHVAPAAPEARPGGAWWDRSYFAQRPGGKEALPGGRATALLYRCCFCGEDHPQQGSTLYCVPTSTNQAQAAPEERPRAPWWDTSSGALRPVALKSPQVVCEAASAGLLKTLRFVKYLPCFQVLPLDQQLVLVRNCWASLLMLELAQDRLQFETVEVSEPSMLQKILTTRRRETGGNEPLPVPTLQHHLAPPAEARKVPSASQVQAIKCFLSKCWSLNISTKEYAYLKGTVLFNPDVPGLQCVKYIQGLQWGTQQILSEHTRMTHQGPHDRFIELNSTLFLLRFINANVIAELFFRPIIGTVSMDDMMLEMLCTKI

Streptococcus = assay: Group A Streptococcus viability loss, dose response, counter-screen for streptokinase expression inhibitor project, luminescence, BacTiterGlo (AID 1915); format: functional, organism-based;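 also: potency for reduction of bacterial viability or growth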
[17] = biological target: Latent membrane protein 1 (Human herpesvirus 4 (strain B95-8), UniProt P03230); assay: TES1-eGFP NF-kB reporter inhibition versus Tet-On dsRED, dose response, selectivity assay for LMP1 NF-kB inhibitor project, imaging, HEK293T, dual-color eGFP/dsRED, cherry-picks (AID 588398); format: functional, cell-based
Sequence of Latent membrane protein 1 (P03230 whole entry): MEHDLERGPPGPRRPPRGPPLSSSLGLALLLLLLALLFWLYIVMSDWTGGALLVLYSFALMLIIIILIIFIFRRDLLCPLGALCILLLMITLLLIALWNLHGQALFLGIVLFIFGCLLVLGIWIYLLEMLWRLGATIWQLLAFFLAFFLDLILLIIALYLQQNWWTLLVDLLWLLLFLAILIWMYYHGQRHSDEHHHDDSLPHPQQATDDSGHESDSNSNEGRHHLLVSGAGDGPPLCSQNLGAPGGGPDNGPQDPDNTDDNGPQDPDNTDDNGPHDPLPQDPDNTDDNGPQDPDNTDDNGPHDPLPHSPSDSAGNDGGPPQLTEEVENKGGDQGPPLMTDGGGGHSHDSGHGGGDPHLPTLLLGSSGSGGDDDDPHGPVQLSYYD

[18] = biological target: Mitochondrial peptide methionine sulfoxide reductase (Bos taurus, UniProt P54149); format: functional;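 also: absorbance read-out, biochemical high-throughput dose-response screen for MsrA inhibitors, confirmatory; recombinant bovine MsrA coupled to E. coli TrxB with NADPH and selenocystamine; potency is for inhibitors of MsrA activity on DMSO substrate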
Sequence of Mitochondrial peptide methionine sulfoxide reductase (P54149 whole entry): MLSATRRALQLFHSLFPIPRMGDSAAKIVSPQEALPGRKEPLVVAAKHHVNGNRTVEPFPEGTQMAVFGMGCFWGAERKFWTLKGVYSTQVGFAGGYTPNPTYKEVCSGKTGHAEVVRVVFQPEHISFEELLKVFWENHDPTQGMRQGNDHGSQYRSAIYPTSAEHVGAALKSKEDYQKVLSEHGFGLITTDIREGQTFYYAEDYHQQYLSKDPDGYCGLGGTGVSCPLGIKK

[19] = HEK293 cell viability, dose response, counter-screen for EBV LMP1 inhibitor project, dry powder, set 2 (AID 624374); format: functional

SMILES: Cc1cccc(OCC(=O)NNC(=O)C2CCCCC2C(=O)O)c1 (stereo not drawn)
- AC50 (A549): 26.4 µM (active)

SMILES: C(=C\c1nccc2c1[nH]c1ccccc12)/c1ccccc1
- CC50 [1]: 25.4 µM (active)
- IC50 [2]: > 0.37 µM (active)

SMILES: COc1ccc(NC(=O)Nc2ccc3c(c2)CC(=O)N([C@H](C)CO)C[C@H](C)[C@H](CN(C)Cc2ccc(C(=O)Nc4ccccc4N)cc2)O3)cc1
- AC50 [3]: 4.17 µM (active)

SMILES: O=C(CF)NC(Nc1cccc2cccnc12)C(Cl)(Cl)Cl (stereo not drawn)
- IC50 [4]: 2.03 µM (active)
- IC50 [5]: > 10 µM (active)

SMILES: COC(=O)CN1C(=S)N(c2ccc(Cl)cc2)C(=O)C1CC(=O)Nc1ccc(Cl)cc1 (stereo not drawn)
- IC50 [6]: 83.3 µM (inactive)
- IC50 [7]: 13.7 µM (inactive)
- IC50 [8]: 19.7 µM (inactive)

SMILES: O=C(COc1ccc2ccc(=O)oc2c1)Nc1cccnc1
- AC50 [9]: 13.6 µM (active)

SMILES: COc1ccc(-c2cc3nc4n(c(=O)c3s2)CCC4)cc1
- AC50 [10]: 36.4 µM (active)
- EC50 [11]: 0.706 µM (active)
- AC50 [12]: > 52 µM (inactive)
- AC50 [13]: 2.53 µM (active)
- AC50 [14]: > 52 µM (inactive)
- AC50 [15]: 2.65 µM (active)
- IC50 (cells): > 67.5 µM (inactive)
- AC50 (HEK293): 1.48 µM (active)
- IC50 [16]: > 0.278 µM (active)
- EC50 (Streptococcus): 2.48 µM (active)
- AC50 [17]: 28 µM (active)

SMILES: COc1cc(C2C(C(=O)c3sc(C)nc3C)=C(O)C(=O)N2CCN(C)C)cc(OC)c1OC (stereo not drawn)
- IC50 [18]: 155 µM (inactive)

SMILES: C[C@@H](NC(=O)C[C@H]1C[C@@H]2c3cc(NC(=O)c4cccnc4)ccc3O[C@@H]2[C@@H](CO)O1)c1ccccc1
- AbsAC35 [19]: 222.38 µM
